PubChem BioAssay AID588339 (The Scripps Research Institute Molecular Screening Center, 2011)
Calls of active or inactive are those of the source. How the calls were made is not given here.

Test system: TLR9-MyD88 CHO cells, cytotoxicity, luminescence
Assay: CHO cell viability loss, potency, luminescence, cytotoxicity control for TLR9-MyD88 binding inhibitor project, dose response (AID 588339)

SMILES | IC50
C[CH2][Hg][S]c1ccccc1C(=O)O | 921 nM
COc1cc(/C=C/C(=O)/C=C(O)/C=C/c2ccc(O)c(OC)c2)ccc1O | 34600 nM (inactive)
